System: systolic pulmonary arterial pressure (sPAP) in subjects with PH-COPD
Assay: Phase 2 placebo-controlled clinical study of pulsed iNO in subjects with PH-COPD on LTOT (IK-7002-COPD-201; NCT01728220)
Type: in vivo, human
Set-up: Average Change in sPAP vs Baseline: unit not given beside the values
Conditions: for Average Change in sPAP vs Baseline: PH-COPD subjects on LTOT, echocardiography
Excerpt: This study was a Phase 2, placebo-controlled, double-blind, randomized, two-part, dose-confirming clinical study characterizing the pharmacodynamic effects of pulsed iNO versus placebo in subjects with PH-COPD on LTOT (IK-7002-COPD-201; NCT01728220). The primary outcome of this study was change in systolic pulmonary arterial pressure (sPAP) from baseline after treatment with iNO (measured by 2D transthoracic echocardiography with Doppler). The secondary outcome was the occurrence of a decrease ≥5 mm Hg of partial pressure of oxygen in arterial blood (PaO2) from baseline after treatment with iNO.
Subjects also had tricuspid regurgitation velocity (TRV)≥2.9 m/s as measured by echocardiogram, a post-bronchodilatory forced expiratory volume in 1 second/forced vital capacity (FEV1/FVC)<0.7 and a FEV1<60% predicted. All subjects were at least 40 years old and were former smokers with at least 10 pack-years of tobacco cigarette smoking before study entry. All subjects also had been receiving LTOT for at least 3 months for at least 10 hours per day.
PH-COPD subjects were administered pulsed iNO at a dose of 3, 10, 15, 30 or 75 mcg/IBW kg/hr for at least 20 minutes, or received pulsed placebo (99.999% N2) for at least 20 minutes. The doses of 3 and 10 mcg/kg IBW/hr were administered from a mini-cylinder having 2,440 ppm NO and the doses of 15, 30 and 75 mcg/kg IBW/hr were administered from a mini-cylinder having 4,880 ppm NO.
The NO delivery device delivered gas comprising NO in a pulsatile manner at the beginning of the patient's breath. The minimum pulse volume is limited and for lower doses, can require 1 or more breaths to be skipped to maintain a constant dose in mcg/kg IBW/hr.

In the case of `[N]=O` [iNO, nitric oxide], the “Average Change in sPAP vs Baseline” value (pulsed iNO 10 mcg/kg IBW/hr for at least 20 minutes, N=21) is reported as −4.4, the “Average Change in sPAP vs Baseline” value (pulsed iNO 15 mcg/kg IBW/hr for at least 20 minutes, N=21) is reported as −2.4 and the “Average Change in sPAP vs Baseline” value (pulsed iNO 30 mcg/kg IBW/hr for at least 20 minutes, N=24) is reported as −4.5. The “Average Change in sPAP vs Baseline” value (pulsed iNO 75 mcg/kg IBW/hr for at least 20 minutes, N=24) was −4.3, the “Efficacy (decrease in sPAP), in words” value (pulsed iNO 3 mcg/kg IBW/hr) was “ineffective” and the “Efficacy (decrease in sPAP), in words” value (pulsed iNO 10 mcg/kg IBW/hr) was “showed efficacy”. For the same compound, the “Efficacy (decrease in sPAP), in words” value (pulsed iNO 15 mcg/kg IBW/hr) was “did not show efficacy”, the “Efficacy (decrease in sPAP), in words” value (pulsed iNO 30 mcg/kg IBW/hr) was “showed efficacy” and the “Efficacy (decrease in sPAP), in words” value (pulsed iNO 75 mcg/kg IBW/hr) was “showed efficacy”.
